In patent US4124598A, “Psoralens” (Hoffmann-La Roche Inc., priority 1976, dated 1978):
Counter-ions that a name gives are not always drawn. Like-named read-outs stand apart in the source and are kept apart here.

Tests used:
[1] = Hydrolysis in aqueous solution; assay type: physicochemical
[2] = system: RNA (Drosophila melanogaster ribosomal RNA); assay: High intensity photoaddition (covalent binding) to RNA; details: 25 μg/ml RNA, psoralen:base pair 1:3
Procedure: (§1) The covalent binding of the psoralens to DNA and RNA was studied. To achieve covalent binding, it is necessary to supply radiant energy (light) to the binding sites. These studies were carried out as follows:
(§2) The DNA and RNA used in the covalent binding studies have been described previously. Samples of each nucleic acid were prepared at a concentration of 25 ug/ml in 0.01 m Tris 0.001 M EDTA buffer. The radioactive-psoralen derivatives were added in a ratio of one psoralen for every three base pairs. The irradiation was carried out in one of the two following devices.
(§3) The low intensity irradiations were performed with a modified slide projector which was fitted with a 400 watt General Electric mercury vapor lamp (H 400 A 33-1/T16). The image of the arc was focused on the same cell, jacketed by a cobaltous nitrate solution which was also used for the high intensity irradiations. The light intensity delivered to the sample in this device was 4 to 6 mw/cm^2. The high intensity irradiations were carried out in a device containing two of the sam 400 watt General Electric mercury vapor lamps which were mounted on either side of a double walled sample chamber at a distance between centers of 4.0 cm. The chamber was cooled to 10° C. by continuous circulation of a temperature regulated solution of cobaltous nitrate (40% w/w). The cobalt solution served as an ultraviolet filter which allowed a maximum transmittance of 365 nm light and a window from approximately 340-380 nm. The intensity of the light at the surface of the inner sample chamber was approximately 100 mw/cm^2. The nucleic acid-psoralen mixture was placed in the inner chamber where it was continuously stirred throughout the irradiation. Aliquots of each solution (derivative plus nucleic acid) were taken at 20, 40 and 60 minutes. Each aliquot was then extracted twice with chloroform/iso-amyl alcohol (24:1) to remove unreacted psoralen followed by exhaustive dialysis against 0.01 M Tris, 0.001 M EDTA buffer. The successful extraction of unbound psoralen by the chloroform-isoamyl alcohol required the aqueous phase to be at least 0.15 M in NaCl. Finally, the optical density of the nucleic-acid psoralen mixture was taken and its radioactivity determined, thus giving the amount of derivative covalently bound to the DNA or RNA. Taking samples, at spaced time intervals also permitted an assessment of the kinetics of the covalent binding.

[3] = system: DNA (calf thymus); assay: Low intensity photoaddition (covalent binding) to DNA; details: for A (footnote 1, shown as drawing 9) / B = percent of added psoralen covalently bound: 25 μg/ml DNA, psoralen:base pair 1:3; for moles of psoralen bound per mole of base pairs: 90 minutes irradiation
Procedure: as §1, §2
as §3, with “Aliquots of each solution (derivative plus nucleic acid) were taken at 20, 40 and 60 minutes.” left out

[4] = system: DNA (calf thymus); assay: High intensity photoaddition (covalent binding) to DNA; details: 25 μg/ml DNA, psoralen:base pair 1:3
Procedure: as §1, §2, §3

[5] = Solubility in pure water; assay type: physicochemical; details: for solubility: pure water
From the text: In order to study solubilities and dissociation constants, it is most convenient to prepare tritiated derivatives of the psoralen compounds. Thus, well-known radiation counting methods may be utilized to monitor the presence of the psoralens in solutions, or in nucleic acids.
(§4) The units of the dissociation constants are moles/liter. Solubilities and molar extinction coefficients (ε) were obtained in pure water, the equilibrium constants (KD) in 0.01 M Tris.

[6] = target: Drosophila melanogaster ribosomal RNA; assay: Equilibrium dialysis, non-covalent binding to RNA; details: for Kd: 0.01 M Tris, non-covalent binding; for (PS)/(S) for RNA in Saturated Solution: occupied/unoccupied binding sites
Procedure: (§5) In order to establish the dissociation constants from DNA and RNA, the non-covalent binding was ascertained. Non-covalent binding determines the presence of the psoralen within the nucleic acid helix. Its presence is determined in the absence of any radiant energy. As noted before, radiant energy is necessary to activate the psoralen covalent binding reaction with nucleic acid base pairs.
(§6) To determine the non-covalent binding, Calf thymus DNA (Sigma Type I) was dissolved in a 0.01 M Tris 0.001 M EDTA pH 8.5 buffer at a concentration of 25 ug/ml. A quantity of this DNA solution was placed in a dialysis bag (pretreated by boiling in NaHCO3), and the various tritiated derivatives were added inside the bag in half the cases and outside the bag in the other half. The molar ratio of psoralen molecules to base pairs was approximately 1:25. The bags were placed in vials filled with 18 ml of buffer and put on a shaker for 48-60 hours. After this period, radioactivity was determined both inside and outside the bags and the optical density of the DNA solution measured. From this information, and the specific activity of each derivative, the amount of drug non-covalently bound to the DNA was determined. Binding of the derivatives to Drosophila melanogaster ribosomal RNA was measured in exactly the same manner.
as §4

[7] = system: Calf thymus DNA; assay: Equilibrium dialysis, non-covalent binding to DNA; details: for Kd: 0.01 M Tris, non-covalent binding; for (PS)/(S) for DNA in Saturated Solution: occupied/unoccupied binding sites
Procedure: as §5, §6, §4

[8] = Molar extinction coefficient in pure water; assay type: physicochemical
From the text: as §4

[9] = system: DNA; assay: Reactivity with DNA (general statement); assay type: binding, calf
Procedure: as §1, §2
as §3, with “Each aliquot was then extracted twice with chloroform/iso-amyl alcohol (24:1) to remove unreacted psoralen followed by exhaustive dialysis against 0.01 M Tris, 0.001 M EDTA buffer. The successful extraction of unbound psoralen by the chloroform-isoamyl alcohol required the aqueous phase to be at least 0.15 M in NaCl.” left out, “Taking samples, at spaced time intervals also permitted an assessment of the kinetics of the covalent binding.” left out

[10] = system: vesicular stomatitis virus; assay type: cell-based, Vesicular stomatitis virus Indiana strain; details: for effectiveness in inactivation of vesicular stomatitis virus vs 4,5',8-trimethyl psoralen: high dose rates, e.g., 30 μg/ml
[11] = calculated from literature results, cited from earlier work
[12] = target: Drosophila melanogaster ribosomal RNA; details: calculated from literature results, cited from earlier work
[13] = system: Calf thymus DNA; details: calculated from literature results, cited from earlier work
[14] = after 90 minutes of irradiation

With Cc1oc2c(C)c3oc(=O)cc(C)c3cc2c1CCl [4'-chloromethyl-4,5',8-trimethyl psoralen] the “hydrolysis of the chloromethyl substituent in aqueous solution” value [1] was “readily hydrolysed in aqueous solution”.

For Cc1oc2c(C)c3oc(=O)cc(C)c3cc2c1CN [4'-aminomethyl-4,5',8-trimethyl psoralen hydrochloride], the “A (footnote 1, shown as drawing 11)” value ([2]; 20 min irradiation) was 5.1, the “B = percent of added psoralen covalently bound” value ([2]; 20 min irradiation) was 59.4% and the “A (footnote 1, shown as drawing 11)” value ([2]; 40 min irradiation) was 5.3. The “B = percent of added psoralen covalently bound” value ([2]; 40 min irradiation) was 57.2%, the “A (footnote 1, shown as drawing 11)” value ([2]; 60 min irradiation) was 5.3 and the “B = percent of added psoralen covalently bound” value ([2]; 60 min irradiation) was 57.3%. For the same molecule, the “rate of reaction with DNA / initial rate of photochemical binding” value [3] was “reacts with DNA much faster than trioxsalen”, the “A (footnote 1, shown as drawing 9)” value ([3]; 5 min irradiation) was 15.0 and the “B = percent of added psoralen covalently bound” value ([3]; 5 min irradiation) was 19.3%. The “A (footnote 1, shown as drawing 9)” value ([3]; 10 min irradiation) was 10.5, the “B = percent of added psoralen covalently bound” value ([3]; 10 min irradiation) was 27.4% and the “A (footnote 1, shown as drawing 9)” value ([3]; 30 min irradiation) was 6.9. The “B = percent of added psoralen covalently bound” value ([3]; 30 min irradiation) was 41.8%, the “A (footnote 1, shown as drawing 9)” value ([3]; 60 min irradiation) was 5.9 and the “B = percent of added psoralen covalently bound” value ([3]; 60 min irradiation) was 48.7%. For the same molecule, the “A (footnote 1, shown as drawing 9)” value ([3]; 90 min irradiation) was 5.5, the “B = percent of added psoralen covalently bound” value ([3]; 90 min irradiation) was 52.4% and the “moles of psoralen bound per mole of base pairs” value [3] was 0.18 moles per mole of base pairs. The “molecules in the solution covalently bound to DNA” value [3, 14] was “over half”, the “A (footnote 1, shown as drawing 10)” value ([4]; 20 min irradiation) was 4.7 and the “B = percent of added psoralen covalently bound” value ([4]; 20 min irradiation) was 63.8%. For the same molecule, the “A (footnote 1, shown as drawing 10)” value ([4]; 40 min irradiation) was 4.8, the “B = percent of added psoralen covalently bound” value ([4]; 40 min irradiation) was 62.5% and the “A (footnote 1, shown as drawing 10)” value ([4]; 60 min irradiation) was 4.8. For the same molecule, the “B = percent of added psoralen covalently bound” value ([4]; 60 min irradiation) was 62.5%, the solubility [5] was 10000 µg/mL and the solubility ([5]; molar) was 34000 µM. For the same molecule, the “times more soluble than 4'-hydroxymethyl trioxsalen” value ([5]; vs 4'-hydroxymethyl trioxsalen) was 150 times, the Kd [6] was 20 µM and the “(PS)/(S) for RNA in Saturated Solution” value [6] was 1700. The Kd [7] was 6.6 µM, the “times more effective at reaching state of site saturation” value ([7]; calculated, DNA) was 10^4 times and the “(PS)/(S) for DNA in Saturated Solution” value ([7]; saturated solution) was 5000. The “times more strongly binding than 4'-hydroxymethyl trioxsalen” value ([7]; vs 4'-hydroxymethyl trioxsalen) was “about 100 times”, the “times more strongly binding to DNA than trioxsalen” value ([7]; vs trioxsalen) was “about 8 times” and the “Extinction coefficient ε, 250 nm” value [8] was 25000 L/mol/cm. For the same molecule, the “reactivity with DNA” value [9] was “excellent reactivity with DNA”, the “inactivation of vesicular stomatitis virus, comparison in words” value ([10]; FIG. 2, 1-3 μg/ml, long wavelength UV) was “undisputed superiority” and the “effectiveness in inactivation of vesicular stomatitis virus vs 4,5',8-trimethyl psoralen” value [10] was “nearly one thousand times more effective”.

In the case of COc1c2occc2cc2ccc(=O)oc12 [8-methoxypsoralen, 8-methoxy psoralen], the solubility [11] is given as 36 µg/mL, the solubility ([11]; molar) is given as 170 µM and the Kd [12] is given as 17000 µM. The “(PS)/(S) for RNA in Saturated Solution” value ([12]; saturated solution) was 0.010, the Kd [13] was 2500 µM and the “(PS)/(S) for DNA in Saturated Solution” value ([13]; saturated solution) was 0.068. The “one psoralen per n base pairs at equilibrium (best achievable)” value ([7]; saturated solution) was roughly 20 base pairs and the “Extinction coefficient ε, 250 nm” value [8] was 19000 L/mol/cm.

In the case of Cc1oc2c(C)c3oc(=O)cc(C)c3cc2c1CO [4'-hydroxymethyl-4,5',8-trimethyl psoralen], the “A (footnote 1, shown as drawing 11)” value ([2]; 20 min irradiation) is reported as 26.3, the “B = percent of added psoralen covalently bound” value ([2]; 20 min irradiation) is reported as 11.5% and the “A (footnote 1, shown as drawing 11)” value ([2]; 40 min irradiation) is reported as 24.8. For the same molecule, the “B = percent of added psoralen covalently bound” value ([2]; 40 min irradiation) was 12.1%, the “A (footnote 1, shown as drawing 11)” value ([2]; 60 min irradiation) was 23.5 and the “B = percent of added psoralen covalently bound” value ([2]; 60 min irradiation) was 13.0%. The “A (footnote 1, shown as drawing 9)” value ([3]; 5 min irradiation) was 89.0, the “B = percent of added psoralen covalently bound” value ([3]; 5 min irradiation) was 3.0% and the “A (footnote 1, shown as drawing 9)” value ([3]; 10 min irradiation) was 59.6. The “B = percent of added psoralen covalently bound” value ([3]; 10 min irradiation) was 4.6%, the “A (footnote 1, shown as drawing 9)” value ([3]; 30 min irradiation) was 26.0 and the “B = percent of added psoralen covalently bound” value ([3]; 30 min irradiation) was 10.3%. For the same molecule, the “A (footnote 1, shown as drawing 9)” value ([3]; 60 min irradiation) was 19.5, the “B = percent of added psoralen covalently bound” value ([3]; 60 min irradiation) was 13.8% and the “A (footnote 1, shown as drawing 9)” value ([3]; 90 min irradiation) was 17.2. For the same molecule, the “B = percent of added psoralen covalently bound” value ([3]; 90 min irradiation) was 15.7%, the “moles of psoralen bound per mole of base pairs” value [3] was 0.06 moles per mole of base pairs and the “remains free in the solution” value [3, 14] was “more than 80%”. The “A (footnote 1, shown as drawing 10)” value ([4]; 20 min irradiation) was 9.1, the “B = percent of added psoralen covalently bound” value ([4]; 20 min irradiation) was 33.0% and the “A (footnote 1, shown as drawing 10)” value ([4]; 40 min irradiation) was 9.2. The “B = percent of added psoralen covalently bound” value ([4]; 40 min irradiation) was 32.6%, the “A (footnote 1, shown as drawing 10)” value ([4]; 60 min irradiation) was 9.1 and the “B = percent of added psoralen covalently bound” value ([4]; 60 min irradiation) was 33.0%. It also gave a solubility [5] of 41 µg/mL, a solubility ([5]; molar) of 160 µM and a Kd [6] of 1000 µM. The “(PS)/(S) for RNA in Saturated Solution” value [6] was 0.16, the Kd [7] was 290 µM and the “DNA site saturation, one psoralen per base pairs” value ([7]; saturated solution, expected from KD and solubility) was “one psoralen per three base pairs”. The “(PS)/(S) for DNA in Saturated Solution” value ([7]; saturated solution) was 0.55, the “(PS)/(S) for DNA in Saturated Solution” value ([7]; saturated solution, listed as 4'-hydroxmethyl trioxsalen) was 0.5 and the “times more strongly binding to DNA than methoxsalen” value ([7]; vs methoxsalen) was 10 times. For the same molecule, the “Extinction coefficient ε, 250 nm” value [8] was 25000 L/mol/cm, the “reactivity with DNA” value [9] was “excellent reactivity with DNA” and the “effectiveness in inactivation of vesicular stomatitis virus vs 4,5',8-trimethyl psoralen” value [10] was “nearly one thousand times more effective”.
